PubChem BioAssay (NCI)
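Growth conditions: 96-well plates. Treatment: test compound, 48 hours, 5 concentrations. Analysis: linear interpolation between bracketing concentrations; unreached endpoints set to highest concentration. Abbreviation: GI50, concentration required for 50% inhibition of growth. TGI is the concentration that stops growth completely.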

Key:
Experiment in all cases: NCI-60 cell line screen, 48 h
HOP-92 NSCLC = tested on: HOP-92 NSCLC
A498 renal = tested on: A498 renal
OVCAR-8 ovarian = tested on: OVCAR-8 ovarian
HCT-15 colon = tested on: HCT-15 colon
LOX IMVI melanoma = tested on: LOX IMVI melanoma
IGROV1 ovarian = tested on: IGROV1 ovarian
UACC-62 melanoma = tested on: UACC-62 melanoma
UACC-257 melanoma = tested on: UACC-257 melanoma
MDA-MB-435 = tested on: MDA-MB-435
NCI-H460 lung = tested on: NCI-H460 lung
ACHN renal = tested on: ACHN renal
NCI-H522 lung = tested on: NCI-H522 lung
M14 melanoma = tested on: M14 melanoma
SNB-75 CNS = tested on: SNB-75 CNS
EKVX NSCLC = tested on: EKVX NSCLC
BT-549 breast = tested on: BT-549 breast
MDA-MB-468 breast = tested on: MDA-MB-468 breast
MCF7 breast = tested on: MCF7 breast
SW-620 colon = tested on: SW-620 colon
MDA-MB-231 breast = tested on: MDA-MB-231 breast
RPMI-8226 leukemia = tested on: RPMI-8226 leukemia
SF-268 CNS = tested on: SF-268 CNS
OVCAR-5 ovarian = tested on: OVCAR-5 ovarian
OVCAR-4 ovarian = tested on: OVCAR-4 ovarian
TK-10 renal = tested on: TK-10 renal
SNB-19 CNS = tested on: SNB-19 CNS
HOP-62 NSCLC = tested on: HOP-62 NSCLC
NCI-H23 lung = tested on: NCI-H23 lung
SF-539 CNS = tested on: SF-539 CNS
T-47D breast = tested on: T-47D breast
COLO 205 colon = tested on: COLO 205 colon
SK-MEL-5 melanoma = tested on: SK-MEL-5 melanoma
A549 NSCLC = tested on: A549 NSCLC
DU-145 prostate = tested on: DU-145 prostate
SK-OV-3 ovarian = tested on: SK-OV-3 ovarian
SR leukemia = tested on: SR leukemia
MALME-3M melanoma = tested on: MALME-3M melanoma
PC-3 prostate = tested on: PC-3 prostate
K-562 leukemia = tested on: K-562 leukemia
SN12C renal = tested on: SN12C renal
HL-60(TB) leukemia = tested on: HL-60(TB) leukemia
HCT-116 colon = tested on: HCT-116 colon
HS 578T breast = tested on: HS 578T breast
CCRF-CEM leukemia = tested on: CCRF-CEM leukemia
NCI/ADR-RES ovarian = tested on: NCI/ADR-RES ovarian
HT29 colon = tested on: HT29 colon
UO-31 renal = tested on: UO-31 renal
U251 CNS = tested on: U251 CNS
SF-295 CNS = tested on: SF-295 CNS
CAKI-1 renal = tested on: CAKI-1 renal
786-0 renal = tested on: 786-0 renal
OVCAR-3 ovarian = tested on: OVCAR-3 ovarian
NCI-H226 lung = tested on: NCI-H226 lung
SK-MEL-2 melanoma = tested on: SK-MEL-2 melanoma
RXF 393 renal = tested on: RXF 393 renal
HCC-2998 colon = tested on: HCC-2998 colon
MOLT-4 leukemia = tested on: MOLT-4 leukemia
SK-MEL-28 melanoma = tested on: SK-MEL-28 melanoma
KM12 colon = tested on: KM12 colon

Structure (SMILES): O=C1CCC(N2Cc3cc(CC(=O)Nc4ccc(N5CCCCC5)cc4)ccc3C2=O)C(=O)N1 (centres undefined)
- GI50 (HOP-92 NSCLC): < 0.01 µM
- TGI (HOP-92 NSCLC): > 100 µM
- GI50 (A498 renal): 0.164 µM
- TGI (A498 renal): > 85.2 µM
- GI50 (OVCAR-8 ovarian): < 0.01 µM
- TGI (OVCAR-8 ovarian): > 100 µM
- GI50 (HCT-15 colon): 0.0368 µM
- TGI (HCT-15 colon): > 100 µM
- GI50 (LOX IMVI melanoma): > 100 µM
- TGI (LOX IMVI melanoma): > 100 µM
- GI50 (IGROV1 ovarian): < 0.0104 µM
- TGI (IGROV1 ovarian): > 100 µM
- GI50 (UACC-62 melanoma): 36.3 µM
- TGI (UACC-62 melanoma): > 100 µM
- GI50 (UACC-257 melanoma): > 100 µM
- TGI (UACC-257 melanoma): > 100 µM
- GI50 (MDA-MB-435): > 100 µM
- TGI (MDA-MB-435): > 100 µM
- GI50 (NCI-H460 lung): > 100 µM
- TGI (NCI-H460 lung): > 100 µM
- GI50 (ACHN renal): > 100 µM
- TGI (ACHN renal): > 100 µM
- GI50 (NCI-H522 lung): > 72.9 µM
- TGI (NCI-H522 lung): > 100 µM
- GI50 (M14 melanoma): 0.432 µM
- TGI (M14 melanoma): > 100 µM
- GI50 (SNB-75 CNS): 0.0288 µM
- TGI (SNB-75 CNS): 99.2 µM
- GI50 (EKVX NSCLC): > 34.5 µM
- TGI (EKVX NSCLC): > 100 µM
- GI50 (BT-549 breast): < 0.01 µM
- TGI (BT-549 breast): 0.927 µM
- GI50 (MDA-MB-468 breast): < 0.01 µM
- TGI (MDA-MB-468 breast): < 0.0282 µM
- GI50 (MCF7 breast): 12.4 µM
- TGI (MCF7 breast): > 100 µM
- GI50 (SW-620 colon): < 0.0144 µM
- TGI (SW-620 colon): > 100 µM
- GI50 (MDA-MB-231 breast): < 0.01 µM
- GI50 (RPMI-8226 leukemia): 20.1 µM
- TGI (RPMI-8226 leukemia): > 100 µM
- GI50 (SF-268 CNS): 40.7 µM
- TGI (SF-268 CNS): > 100 µM
- GI50 (OVCAR-5 ovarian): 0.24 µM
- TGI (OVCAR-5 ovarian): > 100 µM
- GI50 (OVCAR-4 ovarian): 23.4 µM
- TGI (OVCAR-4 ovarian): > 100 µM
- GI50 (TK-10 renal): 1.58 µM
- TGI (TK-10 renal): > 100 µM
- GI50 (SNB-19 CNS): 0.0594 µM
- TGI (SNB-19 CNS): > 100 µM
- GI50 (HOP-62 NSCLC): < 0.01 µM
- GI50 (NCI-H23 lung): > 100 µM
- TGI (NCI-H23 lung): > 100 µM
- GI50 (SF-539 CNS): 25.1 µM
- TGI (SF-539 CNS): > 100 µM
- GI50 (T-47D breast): < 0.01 µM
- TGI (T-47D breast): > 100 µM
- GI50 (COLO 205 colon): 0.0118 µM
- TGI (COLO 205 colon): > 100 µM
- GI50 (SK-MEL-5 melanoma): 1.76 µM
- TGI (SK-MEL-5 melanoma): > 100 µM
- GI50 (A549 NSCLC): 24.2 µM
- TGI (A549 NSCLC): > 100 µM
- GI50 (DU-145 prostate): > 81.6 µM
- TGI (DU-145 prostate): > 100 µM
- GI50 (SK-OV-3 ovarian): 12.9 µM
- TGI (SK-OV-3 ovarian): > 100 µM
- GI50 (SR leukemia): > 100 µM
- TGI (SR leukemia): > 100 µM
- GI50 (MALME-3M melanoma): < 0.01 µM
- TGI (MALME-3M melanoma): 0.0124 µM
- GI50 (PC-3 prostate): < 0.0108 µM
- TGI (PC-3 prostate): > 100 µM
- GI50 (K-562 leukemia): > 56.1 µM
- TGI (K-562 leukemia): > 100 µM
- GI50 (SN12C renal): 0.632 µM
- TGI (SN12C renal): > 90.8 µM
- GI50 (HL-60(TB) leukemia): < 0.01 µM
- GI50 (HCT-116 colon): > 100 µM
- TGI (HCT-116 colon): > 100 µM
- GI50 (HS 578T breast): < 0.0166 µM
- TGI (HS 578T breast): > 100 µM
- GI50 (CCRF-CEM leukemia): < 0.01 µM
- GI50 (NCI/ADR-RES ovarian): 4.34 µM
- TGI (NCI/ADR-RES ovarian): > 100 µM
- GI50 (HT29 colon): 19 µM
- TGI (HT29 colon): > 100 µM
- GI50 (UO-31 renal): 0.0782 µM
- TGI (UO-31 renal): > 100 µM
- GI50 (U251 CNS): 46.8 µM
- TGI (U251 CNS): > 100 µM
- GI50 (SF-295 CNS): > 96.3 µM
- TGI (SF-295 CNS): > 100 µM
- GI50 (CAKI-1 renal): 2.06 µM
- TGI (CAKI-1 renal): > 100 µM
- GI50 (786-0 renal): 1.43 µM
- TGI (786-0 renal): > 100 µM
- GI50 (OVCAR-3 ovarian): 23.2 µM
- TGI (OVCAR-3 ovarian): > 100 µM
- GI50 (NCI-H226 lung): 0.0398 µM
- TGI (NCI-H226 lung): 23.3 µM
- GI50 (SK-MEL-2 melanoma): 2.16 µM
- TGI (SK-MEL-2 melanoma): > 100 µM
- GI50 (RXF 393 renal): 9.66 µM
- TGI (RXF 393 renal): > 100 µM
- GI50 (HCC-2998 colon): 0.0174 µM
- TGI (HCC-2998 colon): > 100 µM
- GI50 (MOLT-4 leukemia): < 0.01 µM
- TGI (MOLT-4 leukemia): > 100 µM
- GI50 (SK-MEL-28 melanoma): > 60.4 µM
- TGI (SK-MEL-28 melanoma): > 100 µM
- GI50 (KM12 colon): 2.37 µM
- TGI (KM12 colon): > 100 µM
